{"source": "paper PMC7187627", "about": "(Antimicrobial Agents and Chemotherapy, 2019)", "test": "Safety and tolerability (adverse events, laboratory tests, ECG), multiple-ascending-dose phase 1 study", "assay_type": "in vivo", "source_text": "Subjects were monitored closely with serial physical examinations, blood evaluations, and 12-lead ECGs. Subjects underwent safety laboratory testing, including measurement of blood cell counts (white blood cell [WBC] with differential, hemoglobin, and platelets), serum chemistry (sodium, potassium, chloride, calcium, bicarbonate, glucose, creatinine, blood urea nitrogen [BUN], creatine kinase [CK], aspartate aminotransferase [AST], alanine aminotransferase [ALT], alkaline phosphatase [ALP], total bilirubin, protein, albumin, amylase, and lipase) and urinalysis (protein, blood, and glucose). Study halting criteria had been established and were reviewed by an independent safety monitor (ISM) and the Safety Monitoring Committee (SMC) prior to proceeding with dosing within a cohort or to the next cohort.\nThe safety population included all subjects who received at least one dose of the study drug. The safety and tolerability of CRS3123 were evaluated by the sequential review of reported adverse events (AEs), changes from baseline in physical examination findings, vital sign measurements, safety laboratory tests (hematology, clinical chemistry, and urinalysis), and key 12-lead ECG findings. All safety assessments were summarized with descriptive statistics or frequency counts.\nThe period of observation for AE reporting began on day 1 at the time of study drug administration and continued through the final visit.\nAll AEs were coded to system organ class (SOC) and preferred term (PT) using the Medical Dictionary for Regulatory Activities (MedDRA), version 17.0 (https://www.meddra.org/). A treatment-emergent AE (TEAE) was defined as any AE that occurred during the study observation period (i.e., from day 1 at the time of study drug administration through the final visit). An AE with a partial onset date was classified as a TEAE if the reported partial onset date could not definitely be identified as before the date of study drug administration. Any AE with a missing onset date or missing time on day of study drug administration was classified as a TEAE.\nTo count the overall number of subjects who experienced each TEAE and calculation of an occurrence rate, a subject experiencing multiple occurrences of an AE was counted only once for that PT. Similarly, if a subject experienced multiple TEAEs within the same SOC, that subject was counted once to calculate an occurrence rate for the SOC. To count the number of subjects who experienced each TEAE by severity classification (mild, moderate, severe, and life-threatening) and calculate an occurrence rate, a subject experiencing multiple occurrences of an AE of the same severity was counted once in that particular severity classification for that PT. If a subject experienced multiple occurrences of an AE of differing severities, only the most severe occurrence within each PT was counted.", "key": {"[1]": {"settings": "200, 400, 600 mg orally twice daily for 10 days"}, "[2]": {"settings": "all TEAEs, Cohort A, 200 mg Q12h (n = 8)"}}, "note": "“Also recorded” adds a separate entry of the source.", "data": [{"smiles": "O=c1cc(NCCCN[C@@H]2CCOc3c(Br)cc(Br)cc32)[nH]c2ccsc12", "note": "[CRS3123]", "values": [{"measurement": "QTcF interval", "setting": "12-lead ECG, all doses", "value": "no QTcF interval changes; also recorded: no prolongation of the QTcF interval"}, {"measurement": "deaths, serious adverse events, severe TEAEs", "setting": "[1]", "value": "no serious adverse events (SAEs) or severe treatment-emergent adverse events (TEAEs) reported"}, {"measurement": "overall safety and tolerability", "setting": "[1]", "value": "generally safe and well tolerated"}, {"measurement": "proportion of subjects reporting at least one treatment-related AE", "setting": "active groups (placebo 33.3%)", "value": 12.5, "unit": "% subjects"}, {"measurement": "No. (%) of subjects: Alanine aminotransferase increased", "setting": "all TEAEs, All active (n = 24)", "value": "3 (12.5)"}, {"measurement": "No. (%) of subjects: Amylase increased", "setting": "all TEAEs, All active (n = 24)", "value": "3 (12.5)"}, {"measurement": "No. (%) of subjects: Anxiety", "setting": "all TEAEs, All active (n = 24)", "value": "1 (4.2)"}, {"measurement": "No. (%) of subjects: Arthropod bite", "setting": "all TEAEs, All active (n = 24)", "value": "1 (4.2)"}, {"measurement": "No. (%) of subjects: Aspartate aminotransferase increased", "setting": "all TEAEs, All active (n = 24)", "value": "2 (8.3)"}, {"measurement": "No. (%) of subjects: Blood bilirubin increased", "setting": "all TEAEs, All active (n = 24)", "value": "1 (4.2)"}, {"measurement": "No. (%) of subjects: Blood calcium increased", "setting": "all TEAEs, All active (n = 24)", "value": "1 (4.2)"}, {"measurement": "No. (%) of subjects: Blood potassium increased", "setting": "all TEAEs, All active (n = 24)", "value": "1 (4.2)"}, {"measurement": "No. (%) of subjects: Blood pressure, diastolic, decreased", "setting": "all TEAEs, All active (n = 24)", "value": "1 (4.2)"}, {"measurement": "No. (%) of subjects: Blood pressure, diastolic, increased", "setting": "all TEAEs, All active (n = 24)", "value": "1 (4.2)"}, {"measurement": "No. (%) of subjects: Blood pressure, systolic, decreased", "setting": "all TEAEs, All active (n = 24)", "value": "0 (0.0)"}, {"measurement": "No. (%) of subjects: Blood pressure, systolic, increased", "setting": "all TEAEs, All active (n = 24)", "value": "1 (4.2)"}, {"measurement": "No. (%) of subjects: Diarrhea", "setting": "all TEAEs, All active (n = 24)", "value": "2 (8.3)"}, {"measurement": "No. (%) of subjects: Dry skin", "setting": "all TEAEs, All active (n = 24)", "value": "1 (4.2)"}, {"measurement": "No. (%) of subjects: Dysgeusia", "setting": "all TEAEs, All active (n = 24)", "value": "1 (4.2)"}, {"measurement": "No. (%) of subjects: Ear and labyrinth disorders (system organ class)", "setting": "all TEAEs, All active (n = 24)", "value": "1 (4.2)"}, {"measurement": "No. (%) of subjects: Ear discomfort", "setting": "all TEAEs, All active (n = 24)", "value": "1 (4.2)"}, {"measurement": "No. (%) of subjects: Erythema", "setting": "all TEAEs, All active (n = 24)", "value": "1 (4.2)"}, {"measurement": "No. (%) of subjects: Gastrointestinal disorders (system organ class)", "setting": "all TEAEs, All active (n = 24)", "value": "2 (8.3)"}, {"measurement": "No. (%) of subjects: General disorders and administration site conditions (system organ class)", "setting": "all TEAEs, All active (n = 24)", "value": "1 (4.2)"}, {"measurement": "No. (%) of subjects: Headache", "setting": "all TEAEs, All active (n = 24)", "value": "2 (8.3)"}, {"measurement": "No. (%) of subjects: Hemoglobin decreased", "setting": "all TEAEs, All active (n = 24)", "value": "4 (16.7)"}, {"measurement": "No. (%) of subjects: Infections and infestations (system organ class)", "setting": "all TEAEs, All active (n = 24)", "value": "1 (4.2)"}, {"measurement": "No. (%) of subjects: Infusion site thrombosis", "setting": "all TEAEs, All active (n = 24)", "value": "1 (4.2)"}, {"measurement": "No. (%) of subjects: Injury, poisoning, and procedural complications (system organ class)", "setting": "all TEAEs, All active (n = 24)", "value": "1 (4.2)"}, {"measurement": "No. (%) of subjects: Investigations (system organ class)", "setting": "all TEAEs, All active (n = 24)", "value": "15 (62.5)"}, {"measurement": "No. (%) of subjects: Lipase increased", "setting": "all TEAEs, All active (n = 24)", "value": "5 (20.8)"}, {"measurement": "No. (%) of subjects: Musculoskeletal and connective tissue disorders (system organ class)", "setting": "all TEAEs, All active (n = 24)", "value": "1 (4.2)"}, {"measurement": "No. (%) of subjects: Myalgia", "setting": "all TEAEs, All active (n = 24)", "value": "1 (4.2)"}, {"measurement": "No. (%) of subjects: Nervous system disorders (system organ class)", "setting": "all TEAEs, All active (n = 24)", "value": "3 (12.5)"}, {"measurement": "No. (%) of subjects: Oropharyngeal pain", "setting": "all TEAEs, All active (n = 24)", "value": "1 (4.2)"}, {"measurement": "No. (%) of subjects: Psychiatric disorders (system organ class)", "setting": "all TEAEs, All active (n = 24)", "value": "1 (4.2)"}, {"measurement": "No. (%) of subjects: Respiratory, thoracic, and mediastinal disorders (system organ class)", "setting": "all TEAEs, All active (n = 24)", "value": "2 (8.3)"}, {"measurement": "No. (%) of subjects: Skin and subcutaneous tissue disorders (system organ class)", "setting": "all TEAEs, All active (n = 24)", "value": "2 (8.3)"}, {"measurement": "No. (%) of subjects: Subjects with TEAEs", "setting": "all TEAEs, All active (n = 24)", "value": "20 (83.3)"}, {"measurement": "No. (%) of subjects: Throat irritation", "setting": "all TEAEs, All active (n = 24)", "value": "1 (4.2)"}, {"measurement": "No. (%) of subjects: Upper respiratory tract infection", "setting": "all TEAEs, All active (n = 24)", "value": "1 (4.2)"}, {"measurement": "No. (%) of subjects: White blood cell count increased", "setting": "all TEAEs, All active (n = 24)", "value": "0 (0.0)"}, {"measurement": "No. (%) of subjects: Alanine aminotransferase increased", "setting": "[2]", "value": "1 (12.5)"}, {"measurement": "No. (%) of subjects: Amylase increased", "setting": "[2]", "value": "1 (12.5)"}, {"measurement": "No. (%) of subjects: Anxiety", "setting": "[2]", "value": "1 (12.5)"}, {"measurement": "No. (%) of subjects: Arthropod bite", "setting": "[2]", "value": "1 (12.5)"}]}]}
